According to US4288609A, “Quaternary ammonium derivatives of adamantane with antimicrobic activity” (priority 1976, dated 1981):
Where two headings read alike, the source gives them in different places.

Legend:
[1] = test system: Staph.Aureus Tour; assay: M.I.C. in vitro, gram+ Staph. Aureus (Table 1); format: cell-based, Staphylococcus Aureus; details: Staphylococcus aureus, read-out: M.I.C.
Protocol: (§1) The method for evaluating the activity in vitro against bacteria, fungi and protozoa consists in introducing calculated quantities of the substance, the activity of which it is desired to test, into culture media already inoculated with a predetermined number of test germs.
(§2) After 24 or 48 hours of incubation at 30° or 37° C., according to the micro-organism being tested, it is possible to evaluate the growth of the same in the culture broth; in this manner the minimum concentration (M.I.C.) which inhibits the growth of the micro-organisms in vitro is determined.
(§3) In table 1 there are recorded the M.I.C. values in γ/ml of the products subject of the present invention, against certain gram+ and gram- bacterial strains, some of which are pathogenic towards human beings.

[2] = test system: Diplococcus Pneum. ISM; assay: M.I.C. in vitro, gram+ Diplococcus Pneum. (Table 1); format: cell-based; details: read-out: M.I.C.
Protocol: as §1, §2, §3

[3] = test system: Streptococ. Henclyt. 0203; assay: M.I.C. in vitro, gram+ Streptococ. Henclyt. (Table 1); format: cell-based; details: read-out: M.I.C.
Protocol: as §1, §2, §3

[4] = test system: Esch. Coli. SKF 12140; assay: M.I.C. in vitro, gram- Esch. Coli (Table 1); format: cell-based, Escherichia Coli; details: Escherichia coli, read-out: M.I.C.
Protocol: as §1, §2, §3

[5] = test system: Klens. Pneum. ISM; assay: M.I.C. in vitro, gram- Klens. Pneum. (Table 1); format: cell-based; details: read-out: M.I.C.
Protocol: as §1, §2, §3

[6] = test system: Proteus Vulc. ATCC 881; assay: M.I.C. in vitro, gram- Proteus Vulc. (Table 1); format: cell-based; details: read-out: M.I.C.
Protocol: as §1, §2, §3

[7] = test system: Pseudom.Aer. ATCC 1014; assay: M.I.C. in vitro, gram- Pseudom. Aer. (Table 1); format: cell-based, Pseudomonas Aeruginosa; details: Pseudomonas aeruginosa, read-out: M.I.C.
Protocol: as §1, §2, §3

[8] = test system: Trych. Mentagr. 1st.Pastuer; assay: MIC mildews, Trichophyton mentagrophytes (Table 2); format: cell-based; details: Trichophyton mentagrophytes, Sabourand broth, read-out: MIC
Protocol: as §1, §2
(§4) Inoculation with Trichophyton mentagrophytes and Microsporum canis was effected in a ratio of 1% of the volume of medium used.
(§5) For the fungi Sabourand broth was used as a culture medium, whilst for the protozoa Kupferberg Trichomonas broth with 5% of horse serum was used.

[9] = test system: Nicrosporum Canis ATCC 11621; assay: MIC mildews, Microsporum canis (Table 2); format: cell-based; details: Microsporum canis, Sabourand broth, read-out: MIC
Protocol: as §1, §2, §4, §5

[10] = test system: Candida Albic. SKF 2270; assay: MIC yeasts, Candida albicans (Table 2); format: cell-based; details: Candida, Sabourand broth, read-out: MIC
Protocol: as §1, §2
(§6) Inoculation with Candida albicans or Candida pseudotropicalis was made by diluting cultures grown for 24 h at 30° C. (cellular density inoculated 10^3 /ml).
as §5

[11] = test system: Candida Pseudotrop. ATCC 2512; assay: MIC yeasts, Candida pseudotropicalis (Table 2); format: cell-based; details: Candida, Sabourand broth, read-out: MIC
Protocol: as §1, §2, §6, §5

[12] = test system: Trich. Vaginalis ISM 66/22; assay: MIC protozoa, Trichomonas vaginalis (Table 2); format: cell-based; details: Trichomonas vaginalis, +10% serum (head); Kupferberg Trichomonas broth with 5% of horse serum; read-out: MIC
Protocol: as §1, §2
(§7) Inoculation with Trichomonas vaginalis and Trichomonas foetus, obtained from cultures transplanted every other day to make them lively, was effected in a ratio of 3.5% of the volume of medium used.
as §5

[13] = test system: Trich. Foetus ISM 66/23; assay: MIC protozoa, Trichomonas foetus (Table 2); format: cell-based; details: Tritrichomonas foetus, +10% serum (head); Kupferberg Trichomonas broth with 5% of horse serum; read-out: MIC
Protocol: as §1, §2, §7, §5

[14] = Acute oral toxicity in mice (Table 4); details: mouse, in vivo, po, LD50, oral, mice, 14 days
Protocol: The substances were administered orally to groups of 10 female mice CF1 of average weight of about 20 grams, in aqueous solution and in such way that the total volume administered would be in each case 1 ml/100 g of weight.

SMILES	MIC ([1]; +10% serum) [µg/mL]	MIC ([1]; without serum) [µg/mL]	MIC ([2]; +10% serum) [µg/mL]	MIC ([2]; without serum) [µg/mL]	MIC ([3]; +10% serum) [µg/mL]	MIC ([3]; without serum) [µg/mL]	MIC ([4]; +10% serum) [µg/mL]	MIC ([4]; without serum) [µg/mL]	MIC ([5]; +10% serum) [µg/mL]	MIC ([5]; without serum) [µg/mL]	MIC ([6]; +10% serum) [µg/mL]	MIC ([6]; without serum) [µg/mL]	MIC ([7]; ATCC1014, +10% serum) [µg/mL]	MIC ([7]; ATCC1014, without serum) [µg/mL]	MIC ([8]; +10% serum) [µg/mL]	MIC ([8]; without serum) [µg/mL]	MIC ([9]; ATCC11621, +10% serum) [µg/mL]	MIC ([9]; ATCC11621, without serum) [µg/mL]	MIC ([10]; +10% serum) [µg/mL]	MIC ([10]; without serum) [µg/mL]	further results
CCCCCCCCCCC[N+](CC)(CC)CCNC(=O)C12CC3CC(CC(C3)C1)C2 [Example 11, n-Undecyl-diethyl-(1-adamantane-carbonylamido)-ethylammonium bromide]	10	< 0.1	5	1	2	< 0.1	100	5	100	5	100	10	100	20	10	0.1	20	0.2	20	1	MIC ([11]; ATCC2512, +10% serum): 20 µg/mL; MIC ([11]; ATCC2512, without serum): < 0.1 µg/mL; MIC [12]: 5 µg/mL; MIC [13]: 5 µg/mL; LD50 at 336 h [14]: 935 mg/kg
CCCCCCCCCC[N+](C)(C)CCNC(=O)C12CC3CC(CC(C3)C1)C2 [Example 7]	5	0.2	10	0.5	2	0.2	100	10	50	10	100	10	100	50	20	0.5	20	0.5	50	5	MIC ([11]; ATCC2512, +10% serum): 50 µg/mL; MIC ([11]; ATCC2512, without serum): 0.2 µg/mL; MIC [12]: 5 µg/mL; MIC [13]: 2 µg/mL; LD50 at 336 h [14]: 955 mg/kg
CCCCCCCCCCCC[N+](CC)(CC)CCNC(=O)C12CC3CC(CC(C3)C1)C2 [Example 12, n-Dodecyl-diethyl-(1-adamantane-carbonylamido)-ethylammonium bromide]	10	0.2	20	2	5	0.2	100	10	100	5	100	5	100	20	20	0.2	20	0.5	20	1	MIC ([11]; ATCC2512, +10% serum): 50 µg/mL; MIC ([11]; ATCC2512, without serum): 0.1 µg/mL; MIC [12]: 5 µg/mL; MIC [13]: 5 µg/mL; LD50 at 336 h [14]: 890 mg/kg
